# Literature values in US20160279255A1, “THERAPEUTIC COMPOSITIONS INCLUDING MODULATORS OF deltaPKC AND/OR epsilonPKC, AND USES THEREOF” (priority 2014, published 2016).
# Test system: several mammalian cell types
# Conditions: energy-independent manner; cited from earlier work
substance,measurement,value
"2′,6′-Dmt-D-Arg-Phe-Lys-NH2",penetration of the plasma membrane,readily penetrates the plasma membrane
